Experimental findings from article PMC7823780 (Viruses, 2021) are described below.

Read-outs that look alike come from different tables or passages of the source.

Data set [1] in a line: Cytotoxicity assay, MTT, mock-infected Vero-76. It counts as cell-based. The conditions noted are these: Cercopithecus aethiops, mock-infected Vero-76 cells, mock-infected Vero-76, MTT; for CC50 at 3 days: value marked *, after 3 * days; for CC50: value printed without *.
A short description of data set [2]: Cytotoxicity assay, MTT, mock-infected HeLa. The conditions noted are these: human, mock-infected HeLa cells. Format: cell-based.
Data set [3] in a line: Cytotoxicity assay, mock-infected LLC-MK2. Format: cell-based. Conditions: Macaca mulatta, mock-infected LLC-MK2 cells, mock-infected LLC-MK2, MTT.
Data set [4] in a line: Cytotoxicity assay, MTT, mock-infected BHK-21. Format: cell-based. The conditions noted are these: Syrian hamster, mock-infected BHK-21 cells; mock-infected BHK-21, MTT.
A short description of data set [5]: Cytotoxicity assay, MTT, mock-infected MDBK. Conditions: bovine, mock-infected MDBK cells. It counts as cell-based.
A further data set relates to CV-B3. As to the kind of experiment: Plaque reduction assay CV-B3. The conditions noted are these: Enterovirus B. It counts as cell-based, human enterovirus B. (In general: Plaque reduction counts the foci of infection that form in a cell layer.)
The subject of another data set is CV-B4. As to the kind of experiment: Plaque reduction assay CV-B4. The conditions noted are these: for EC50: Enterovirus B. Format: cell-based, human enterovirus B.
For the next data set, the system named is CV-B5. The experiment in a line: Plaque reduction assay CV-B5. Format: cell-based, human enterovirus B. Conditions: Enterovirus B.
The test system of a further data set is PV-1. As to the kind of experiment: microbe, parasite or virus in culture. Format: cell-based. The conditions noted are these: Enterovirus C, read-out: EC50 PV-1.
The test system of another data set is EV-D68. As to the kind of experiment: Inhibition of EV-D68-induced cytopathogenicity in HeLa cells (MTT). Format: cell-based, human enterovirus D 68 strain Fermon. The conditions noted are these: for EC50: Enterovirus D, EVD68, m.o.i. 0.01. On the technique in general: Damage to the host cells serves as the signal in cytopathic effect assays.
The subject of a further data set is Echo9. As to the kind of experiment: Plaque reduction assay Echo9. It counts as cell-based, human enterovirus B. Conditions: Enterovirus B; 50% reduction of plaque number, LLC-MK2 cells.
Where [6] appears, read: CVB3, 50% reduction of plaque number, read-out: EC50 CV-B3.
Setting [7] is: CVB4, 50% reduction of plaque number, read-out: EC50 CV-B4.
Where [8] appears, read: CVB5, 50% reduction of plaque number, read-out: EC50 CV-B5.

The term CC50 denotes the concentration that lowers cell viability or growth by half. Higher therefore signals lower toxicity to the cells. The EC50 is the concentration giving half of the maximal effect. For `CC(C)c1ccc(-c2nc3ccccc3[nH]2)cc1` [Compound 1a, 2-(4-Isopropylphenyl)-1H-Benzo[d]imidazole], the midpoint of cytotoxicity in data set [1], the CC50 at 3 days, lay at 24 µM. The values for the CC50 in [1], in data set [4] and in [5] were 60 µM, 36 µM and 65 µM, respectively. In addition, the midpoint of cytotoxicity in data set [2], the CC50 at 4 days, lay at 9 µM. In data set [3], this molecule registered a CC50 at 5 days of 6 µM. Further, the EC50 with CV-B3 (setting [6]) was more than 60 µM; in the data set on CV-B4 (setting [7]), more than 60 µM; in the data set on CV-B5 (setting [8]) it was more than 60 µM; in the data set on PV-1 it was 11.5 µM; in the data set on EV-D68 it was more than 9 µM; in the data set with Echo9, more than 6 µM.
In turn, `CC(C)(C)c1ccc(-c2nc3ccccc3[nH]2)cc1` [Compound 1b, 2-(4-(Tert-Butyl)phenyl)-1H-Benzo[d]imidazole] showed a cytotoxic concentration (CC50) at 3 days in data set [1] of 40 µM. The figures for the cytotoxic concentration (CC50) in [1], in data set [4] and in data set [5] were 46 µM, 20 µM and 9 µM, respectively. In addition, it took 9 µM to reach half-maximal cytotoxicity in data set [2] (CC50 at 4 days). The 50% cytotoxic concentration (CC50) at 5 days in data set [3] was 6.5 µM. Also, the 50% effective concentration (EC50) is more than 46 µM in the data set on CV-B3 (setting [6]); more than 46 µM in the data set with CV-B4 (setting [7]); 7 µM in the data set on CV-B5 (setting [8]); 9 µM with PV-1; more than 9 µM in the data set on EV-D68; more than 6.5 µM in the data set on Echo9.
As to `CC(C)c1ccc(-c2nc3cc(Cl)ccc3[nH]2)cc1` [Compound 2a, 5-Chloro-2-(4-Isopropylphenyl)-1H-Benzo[d]imidazole], the 50% cytotoxic concentration (CC50) in data set [1] was more than 100 µM; in data set [4], more than 100 µM; in [5], 80 µM. The molecule further had a cytotoxic concentration (CC50) at 4 days in data set [2] of 100 µM. Moreover, in data set [3], the CC50 at 5 days is more than 100 µM. Also, the concentration for a half-maximal effect (EC50) was 17 µM in the data set on CV-B3 (setting [6]); not below 100 µM in the data set on CV-B4 (setting [7]); 10 µM in the data set with CV-B5 (setting [8]); 9 µM with PV-1; more than 100 µM in the data set on EV-D68; 8 µM with Echo9. Moreover, in the data set on CV-B4 (50% reduction of plaque number), the “EC50 CV-B4” value is given as “No activity”.
Molecule `CC(C)c1ccc(-c2nc3cc(Cl)c(Cl)cc3[nH]2)cc1` [Compound 3a, 5,6-Dichloro-2-(4-Isopropylphenyl)-1H-Benzo[d]imidazole] displayed a CC50 at 3 days in data set [1] of 8 µM. Moreover, the 50% cytotoxic concentration (CC50) is 25.5 µM in data set [1], 8 µM in data set [4] and 2.5 µM in data set [5]. For the same molecule, the CC50 at 4 days in [2] is 8 µM. The molecule further showed a cytotoxic concentration (CC50) at 5 days in [3] of 7 µM. The concentration giving a half-maximal response (EC50) in the data set on CV-B3 (CVB3, read-out: EC50 CV-B3) was more than 25.5 µM; in the data set on CV-B4 (CVB4, read-out: EC50 CV-B4) it was more than 25.5 µM; in the data set on CV-B5 (CVB5, read-out: EC50 CV-B5) it was more than 25.5 µM; in the data set on PV-1, more than 25.5 µM; in the data set on EV-D68, more than 8 µM; with Echo9 it was more than 7 µM.
As for `CC(C)(C)c1ccc(-c2nc3cc(Cl)c(Cl)cc3[nH]2)cc1` [Compound 3b, 2-(4-(Tert-Butyl)phenyl)-5,6-Dichloro-1H-Benzo[d]imidazole], the half-maximal cytotoxic concentration (CC50) in data set [1] came to 9 µM; in [4], 9 µM; in [5], 7 µM. The same molecule showed a half-maximal cytotoxic concentration (CC50) at 4 days in data set [2] of 6.4 µM. The molecule further came in with a CC50 at 5 days in data set [3] of 12 µM. In addition, the half-maximal effective concentration (EC50) was more than 9 µM in the data set on CV-B3 (setting [6]); more than 9 µM in the data set on CV-B4 (setting [7]); 2 µM with CV-B5 (setting [8]); more than 6.4 µM in the data set with EV-D68; more than 12 µM in the data set with Echo9.
As to `CC(C)c1ccc(-c2nc3cc(F)ccc3[nH]2)cc1` [Compound 4a, 5-Fluoro-2-(4-Isopropylphenyl)-1H-Benzo[d]imidazole], the half-maximal cytotoxic concentration (CC50) in data set [1], in data set [4] and in [5] was more than 100 µM each time. In data set [2], the half-maximal cytotoxic concentration (CC50) at 4 days is more than 100 µM. In addition, half-maximal cytotoxicity in data set [3] (CC50 at 5 days) was put at 29.5 µM. The 50% effective concentration (EC50) is more than 100 µM in the data set on CV-B3 (setting [6]); more than 100 µM with CV-B4 (setting [7]); more than 100 µM with CV-B5 (setting [8]); not below 100 µM with PV-1; more than 100 µM in the data set on EV-D68; more than 29.5 µM with Echo9.
With `CC(C)(C)c1ccc(-c2nc3cc(F)ccc3[nH]2)cc1` [Compound 4b, 2-(4-(Tert-Butyl)phenyl)-5-Fluoro-1H-Benzo[d]imidazole], the CC50 in data set [1], in data set [4] and in [5] was more than 100 µM each time. The same molecule returned a CC50 at 4 days in data set [2] of more than 100 µM. Further, the CC50 at 5 days in data set [3] was more than 100 µM. The concentration giving a half-maximal response (EC50) is more than 100 µM with CV-B3 (setting [6]); more than 100 µM with CV-B4 (setting [7]); more than 100 µM with CV-B5 (setting [8]); 20 µM in the data set on PV-1; more than 100 µM in the data set on EV-D68; more than 100 µM with Echo9.
As to `CC(C)c1ccc(-c2nc3cc(F)c(F)cc3[nH]2)cc1` [Compound 5a, 5,6-Difluoro-2-(4-Isopropylphenyl)-1H-Benzo[d]imidazole], the 50% cytotoxic concentration (CC50) in data set [1], in data set [4] and in data set [5] was more than 100 µM throughout. In data set [2], this molecule displayed a CC50 at 4 days of more than 100 µM. In data set [3], this molecule registered a 50% cytotoxic concentration (CC50) at 5 days of 100 µM. Also, the EC50 was more than 100 µM in the data set on CV-B3 (setting [6]); more than 100 µM in the data set with CV-B4 (setting [7]); more than 100 µM in the data set on CV-B5 (setting [8]); 12 µM in the data set on PV-1; more than 100 µM with EV-D68; more than 100 µM in the data set on Echo9. Moreover, in the data set on EV-D68 (m.o.i. 0.01), the “EC50 EV-D68” value is reported as “not active”.
In the case of `CC(C)(C)c1ccc(-c2nc3cc(F)c(F)cc3[nH]2)cc1` [Compound 5b, 2-(4-(Tert-Butyl)phenyl)-5,6-Difluoro-1H-Benzo[d]imidazole], the cytotoxic concentration (CC50) in data set [1], in [4] and in [5] was more than 100 µM each time. The half-maximal cytotoxic concentration (CC50) at 4 days in data set [2] is more than 100 µM. This molecule also registered a CC50 at 5 days in data set [3] of more than 100 µM. Further, the EC50 in the data set with CV-B3 (setting [6]) was more than 100 µM; in the data set on CV-B4 (setting [7]), more than 100 µM; in the data set on CV-B5 (setting [8]), more than 100 µM; with PV-1 it was 10 µM; in the data set with EV-D68, 4 µM; with Echo9 it was more than 100 µM.
`C[C@@]1(O)[C@H](O)[C@@H](CO)O[C@H]1n1ccc(N)nc1=O` [NM 107, 2′-C-methylcytidine, reference compound] gave a CC50 in data set [1] of more than 100 µM. For the same molecule, the EC50 with CV-B4 (setting [7]) was 29 µM; in the data set on PV-1, 6 µM.
As to `Cc1cc(CCCOc2c(C)cc(-c3noc(C(F)(F)F)n3)cc2C)on1` [Plc, Pleconaril, reference compound], the CC50 in data set [1] is more than 100 µM. For the same molecule, in data set [3], the CC50 at 5 days was more than 100 µM. Also, the EC50 in the data set with CV-B3 (setting [6]) came to 2 ± 0.005 µM; in the data set with CV-B5 (setting [8]), 2 ± 0.5 µM; in the data set with EV-D68 it was 0.3 µM; with Echo9 it was 0.1 µM.
In turn, `CCOC(=O)/C=C/[C@H](C[C@@H]1CCNC1=O)NC(=O)[C@@H](CC(=O)[C@@H](NC(=O)c1cc(C)on1)C(C)C)Cc1ccc(F)cc1` [Rup, Rupintrivir, reference compound] showed a CC50 in [1] of more than 100 µM. Also, the EC50 in the data set on PV-1 worked out at 0.07 µM.
